Assay results taken from US8445461B2, “Pharmaceutical composition for meniere's disease” (Setsuko Takeda, priority 2007, dated 2013).

What was measured:
[1] = test system: experimental endolymphatic hydrops; test: Endolymphatic hydrops decompression effect: IR-L, IR-S and regression lines in the operated ear; assay type: in vivo, guinea pigs; conditions: for Regression line IR-S vs IR-L: Y-intercept / Regression line IR-S vs IR-L: slope: operated ears; for Regression line IR-S vs IR-L: Y-intercept / Regression line IR-S vs IR-L: slope / IR-L (%) increase ratio of the length of Reissner's membrane / IR-S (%) increase ratio of the cross-sectional area of the scala media: active agent 2.8 g/kg oral; for IR-L (%) increase ratio of the length of Reissner's membrane / IR-S (%) increase ratio of the cross-sectional area of the scala media: operated side
Method: The endolymphatic hydrops-decompression effect of saccharides or sugar alcohols was evaluated by assaying as below in triplicate. Firstly, guinea pigs received the surgical obliteration of the endolymphatic sac in the left ear to prepare “experimental model animals with endolymphatic hydrops”. The surgical obliteration of the endolymphatic sac was carried out by burning the extraskeletal portion in the endolymphatic sac with a bipolar electrocoagulator. An endolymphatic sac plays an important role in the absorption of endolymphatic fluid. The inhibition of absorption of endolymphatic fluid was caused by burning the endolymphatic sac to prepare an experimental endolymphatic hydrops. Those hydrops are progressively formed. The size of hydrops becomes constant 2 weeks to month after the surgery and maintained for several months. In detail, see Non-patent Reference 8 for the surgery.
After 1 month, they were divided into 3 groups: Group 2-1 (groups 1-6), 60 animals; Group 2-2 (groups 7-10), 40 animals; and Group 2-3 (groups 11-20), […]. The animals in Group 2-1 received saccharides or sugar alcohols alone (Reference Example 5). The animals in Group 2-2 orally received saccharides or sugar alcohols added polysaccharides. The animals in Group 2-3 received other combinations of saccharides or sugar alcohols added polysaccharides. Animals were sacrificed after the oral administration and the observation and the assessment the gastrointestinal condition, and observed the morphological change of the cochlea mainly in the operated side (left side), in particular of the endolymphatic hydrops decompression effect.
I were obtained left sides of the temporal bones immediately following fixation and kept them in 10% formalin solution for 10 days or more. They were decalcified with 5% trichloroacetic acid and dehydrated with alcohol in increasing concentration, then embedded in paraffin and celloidin. The prepared blocks were cut serially in the horizontal plane. The mid-modiolar sections were stained in hematoxylin and eosin and studied under a light microscope. For the quantitative assessment of changes of the endolymphatic space, the change ratios of the length of Reissner's membrane and the cross-sectional area of the scala media in each turn were measured from the mid-modiolar sections of the cochlea.
From these parameters, the increase ratios (%) of the length of Reissner's membrane (IR-L) and the cross-sectional area (%) of the scala media (IR-S) of a total of four turns were calculated according to the equation as described below:
The increase ratio of the length of Reissner's membrane (IR-L)=100×Σ(Lx−L*x)/ΣL*x (x: first, second, third and fourth turns)
The increase ratio of the cross-section area of the scala media (IR-S)=100×Σ(Sx−S*x)/ΣS*x (x: first, second, third and fourth turns)
Since almost no difference is shown in the regression lines of each group, it cannot be understood that there is the decompression effect of erythritol alone. When endolymphatic hydrops is formed, the cross-sectional area of scala media and the length of Reissner's membrane will increase. It can be assumed from FIG. 1 that there is statistically a primary correlation between both of them in the operated side in the control group. The regression lines are; IR-S (distilled water)=4.011+1.212*IR-L (distilled water); R2=0.987, IR-S (1 hour after)=5.409+1.1*IR-L (1 hour after); R2=0.903, IR-S (2 hours after)=1.125+0.992*IR-L (2 hours after); R2=0.98, IR-S (3 hours after)=2.407+1.309*IR-L (3 hours after); R2=0.974, IR-S (6 hours after)=7.36+1.147*IR-L (6 hours after); R2=0.895, IR-S (12 hours after)=8.089+1.152*IR-L (12 hours after); R2=0.918.
The difference of decompression effect on endolymphatic hydrops depending on dose of pectin added and time-course of the decompression effect can hardly determined by comparing and analyzing the average and standard deviation of IR-L and IR-S in the operated side in each groups. […]

[2] = Volume of agent: volume, weight and particle size of formulations (Example 4); assay type: physicochemical; conditions: 21 g of erythritol
Method: When erythritol is administered to an adult (60 kg body weight), the single dose may be 10 to 80 g, preferably 20 to 60 g. When 21 g of erythritol is administered as powder, the volume may be about 53 ml. Alternatively, administered as saturated aqueous solution, it requires 65 ml of distilled water, and volume and weight thereof is 78 ml and 86 g, respectively. Carrying it to administer 3 times daily is inconvenient for a patient with Meniere's disease.
The volume of this gel formulation is 20.25 ml and the weight thereof is 36 g. By drying and grinding this gel formulation, the volume increases to 33 ml, however it is convenient for carrying. The particle size of dry milled powder is described in Table 44. If water (10 ml) is added thereto prior to use and mixed, a gel formulation (23 ml) is again obtained.
The volume of this gel formulation is 20.25 ml and the weight thereof is 26.1 g. By drying and grinding this gel formulation, the volume increases to 31.5 ml. The particle size of dry milled powder is described in Table 44. If water (3 ml) is added thereto prior to use and mixed, a gel formulation (24 ml) is again obtained.

[3] = alone or with additive, 3 hours after
[4] = alone or with additive, 6 hours after
[5] = alone or with additive, 12 hours after
[6] = alone or with additive, perfusion 3 hours after
[7] = alone or with additive, perfusion 6 hours after
[8] = alone or with additive, perfusion 12 hours after

OC[C@@H](O)[C@@H](O)CO [Erythritol, erythritol]
Difference of regression lines from control (ANCOVA test) ([1]; erythritol 2.8 g/kg alone, E1H to E12H groups (1 to 12 hours after)): no significant difference | Regression line IR-S vs IR-L: Y-intercept [1, 3]: 2.407 | Regression line IR-S vs IR-L: slope [1, 3]: 1.309 | Regression line IR-S vs IR-L: Y-intercept [1, 4]: 7.36 | Regression line IR-S vs IR-L: slope [1, 4]: 1.147 | Regression line IR-S vs IR-L: Y-intercept [1, 5]: 8.089 | Regression line IR-S vs IR-L: slope [1, 5]: 1.152 | Regression line IR-S vs IR-L: Y-intercept ([1]; 1 hour after): 5.409 | Regression line IR-S vs IR-L: slope ([1]; 1 hour after): 1.1 | Regression line IR-S vs IR-L: Y-intercept ([1]; 2 hours after): 1.125 | Regression line IR-S vs IR-L: slope ([1]; 2 hours after): 0.992 | IR-L (%) increase ratio of the length of Reissner's membrane [1, 6]: 23.2 ± 16.9% | IR-S (%) increase ratio of the cross-sectional area of the scala media [1, 6]: 32.7 ± 22.4% | IR-L (%) increase ratio of the length of Reissner's membrane [1, 7]: 37.8 ± 24.8% | IR-S (%) increase ratio of the cross-sectional area of the scala media [1, 7]: 51.4 ± 38.1% | IR-L (%) increase ratio of the length of Reissner's membrane [1, 8]: 37.5 ± 18.7% | IR-S (%) increase ratio of the cross-sectional area of the scala media [1, 8]: 51.4 ± 22.5% | IR-L (%) increase ratio of the length of Reissner's membrane ([1]; perfusion 1 hour after): 24.2 ± 20.2% | IR-S (%) increase ratio of the cross-sectional area of the scala media ([1]; perfusion 1 hour after): 32.1 ± 23.3% | IR-L (%) increase ratio of the length of Reissner's membrane ([1]; perfusion 2 hours after): 29.4 ± 25.5% | IR-S (%) increase ratio of the cross-sectional area of the scala media ([1]; perfusion 2 hours after): 30.2 ± 26.3% | Distilled water required for saturated aqueous solution [2]: 65 mL | Volume as powder [2]: about 53 ml | Volume of saturated aqueous solution [2]: 78 mL | Weight of saturated aqueous solution [2]: 86 g
